# Test results published in patent US20240341307A1, “FUNGICIDAL COMPOSITIONS” (SYNGENTA CROP PROTECTION AG, priority 2021, published 2024).
# Assays:
# Format in all cases: cell-based
# Conditions in all cases: alone
# [1] = test system: Glomerella lapenarium Syn. Colletotrichum lapenarium; assay: Glomerella lapenarium syn. Colletotrichum lapenarium (anthracnose of cucurbits) growth inhibition in nutrient broth, photometric after 72 hrs at 620 nm
# Text: A synergistic effect exists whenever the action of an active ingredient combination is greater than the sum of the actions of the individual components. The action to be expected E for a given active ingredient combination obeys the so-called COLBY formula and can be calculated as follows (COLBY, S. R. “Calculating synergistic and antagonistic responses of herbicide combination”. Weeds, Vol. 15, pages 20-22; 1967): • ppm=milligrams of active ingredient (=a.i.) per liter of spray mixture • X=% action by active ingredient A) using p ppm of active ingredient • Y=% action by active ingredient B) using q ppm of active ingredient. According to COLBY, the expected (additive) action of active ingredients A)+B) using p+q ppm of active ingredient is If the action actually observed (O) is greater than the expected action (E), then the action of the combination is super-additive, i.e. there is a synergistic effect. In mathematical terms, synergism corresponds to a positive value for the difference of (O-E). In the case of purely complementary addition of activities (expected activity), said difference (O-E) is zero. A negative value of said difference (O-E) signals a loss of activity compared to the expected activity. Glomerella lapenarium Syn. Colletotrichum lapenarium (Anthracnose of Cucurbits): Conidia of the fungus from cryogenic storage were directly mixed into nutrient broth ([…] potato dextrose broth). A DMSO solution of the test compounds was placed into a microtiter plate (96-well format) and the nutrient broth containing the fungal spores was added to it. The test plates were incubated at 24 C and the inhibition of growth was determined photometrically after 72 hrs at 620 nm.
# Botrytis cinerea = Botrytis cinerea (gray mould) growth inhibition in nutrient broth, microtiter plate, photometric after 72 hrs
# Text: A synergistic effect exists whenever the action of an active ingredient combination is greater than the sum of the actions of the individual components. The action to be expected E for a given active ingredient combination obeys the so-called COLBY formula and can be calculated as follows (COLBY, S. R. “Calculating synergistic and antagonistic responses of herbicide combination”. Weeds, Vol. 15, pages 20-22; 1967): • ppm=milligrams of active ingredient (=a.i.) per liter of spray mixture • X=% action by active ingredient A) using p ppm of active ingredient • Y=% action by active ingredient B) using q ppm of active ingredient. According to COLBY, the expected (additive) action of active ingredients A)+B) using p+q ppm of active ingredient is If the action actually observed (O) is greater than the expected action (E), then the action of the combination is super-additive, i.e. there is a synergistic effect. In mathematical terms, synergism corresponds to a positive value for the difference of (O-E). In the case of purely complementary addition of activities (expected activity), said difference (O-E) is zero. A negative value of said difference (O-E) signals a loss of activity compared to the expected activity. Botrytis cinerea (GRAY Mould): Conidia of the fungus from cryogenic storage were directly mixed into nutrient broth ([…] potato dextrose broth). A DMSO solution of the test compounds was placed into a microtiter plate (96-well format) and the nutrient broth containing the fungal spores was added to it. The test plates were incubated at 24 C and the inhibition of growth was determined photometrically after 72 hrs.
# Sclerotinia sclerotiorum = Sclerotinia sclerotiorum (cottony rot, white mold) growth inhibition in nutrient broth, photometric after 72 hrs at 620 nm
# Text: A synergistic effect exists whenever the action of an active ingredient combination is greater than the sum of the actions of the individual components. The action to be expected E for a given active ingredient combination obeys the so-called COLBY formula and can be calculated as follows (COLBY, S. R. “Calculating synergistic and antagonistic responses of herbicide combination”. Weeds, Vol. 15, pages 20-22; 1967): • ppm=milligrams of active ingredient (=a.i.) per liter of spray mixture • X=% action by active ingredient A) using p ppm of active ingredient • Y=% action by active ingredient B) using q ppm of active ingredient. According to COLBY, the expected (additive) action of active ingredients A)+B) using p+q ppm of active ingredient is If the action actually observed (O) is greater than the expected action (E), then the action of the combination is super-additive, i.e. there is a synergistic effect. In mathematical terms, synergism corresponds to a positive value for the difference of (O-E). In the case of purely complementary addition of activities (expected activity), said difference (O-E) is zero. A negative value of said difference (O-E) signals a loss of activity compared to the expected activity. Sclerotinia sclerotiorum (Cottony Rot, White Mold, Etc.) Mycelial fragments of the fungus prepared from a fresh liquid culture were directly mixed into nutrient broth (PDB potato dextrose broth). A DMSO solution of the test compounds was placed into a microtiter plate (96-well format) and the nutrient broth containing the fungal spores was added to it. The test plates were incubated at 24 C and the inhibition of growth was determined photometrically after 72 hrs at 620 nm.
# Alternaria solani = Alternaria solani (early blight tomato/potato) growth inhibition in nutrient broth, microtiter plate, photometric after 48 hrs
# Text: A synergistic effect exists whenever the action of an active ingredient combination is greater than the sum of the actions of the individual components. The action to be expected E for a given active ingredient combination obeys the so-called COLBY formula and can be calculated as follows (COLBY, S. R. “Calculating synergistic and antagonistic responses of herbicide combination”. Weeds, Vol. 15, pages 20-22; 1967): • ppm=milligrams of active ingredient (=a.i.) per liter of spray mixture • X=% action by active ingredient A) using p ppm of active ingredient • Y=% action by active ingredient B) using q ppm of active ingredient. According to COLBY, the expected (additive) action of active ingredients A)+B) using p+q ppm of active ingredient is If the action actually observed (O) is greater than the expected action (E), then the action of the combination is super-additive, i.e. there is a synergistic effect. In mathematical terms, synergism corresponds to a positive value for the difference of (O-E). In the case of purely complementary addition of activities (expected activity), said difference (O-E) is zero. A negative value of said difference (O-E) signals a loss of activity compared to the expected activity. Alternaria solani (Early Blight Tomato/Potato): Conidia of the fungus from cryogenic storage were directly mixed into nutrient broth (PDB potato dextrose broth). A DMSO solution of the test compounds was placed into a microtiter plate (96-well format) and the nutrient broth containing the fungal spores was added to it. The test plates were incubated at 24 C and the inhibition of growth was determined photometrically after 48 hrs.
# [2] = test system: Mycosphaerella arachidis syn. Cercospora arachidicola; assay: Mycosphaerella arachidis syn. Cercospora arachidicola (brown leaf spot of peanut) growth inhibition in nutrient broth, photometric after 5-6 days at 620 nm
# Text: A synergistic effect exists whenever the action of an active ingredient combination is greater than the sum of the actions of the individual components. The action to be expected E for a given active ingredient combination obeys the so-called COLBY formula and can be calculated as follows (COLBY, S. R. “Calculating synergistic and antagonistic responses of herbicide combination”. Weeds, Vol. 15, pages 20-22; 1967): • ppm=milligrams of active ingredient (=a.i.) per liter of spray mixture • X=% action by active ingredient A) using p ppm of active ingredient • Y=% action by active ingredient B) using q ppm of active ingredient. According to COLBY, the expected (additive) action of active ingredients A)+B) using p+q ppm of active ingredient is If the action actually observed (O) is greater than the expected action (E), then the action of the combination is super-additive, i.e. there is a synergistic effect. In mathematical terms, synergism corresponds to a positive value for the difference of (O-E). In the case of purely complementary addition of activities (expected activity), said difference (O-E) is zero. A negative value of said difference (O-E) signals a loss of activity compared to the expected activity. Mycosphaerella arachidis syn. Cercospora arachidicola (Brown leaf spot of peanut): Conidia of the fungus from cryogenic storage were directly mixed into nutrient broth (PDB potato dextrose broth). A DMSO solution of the test compounds was placed into a microtiter plate (96-well format) and the nutrient broth containing the fungal spores was added to it. The test plates were incubated at 24 C and the inhibition of growth was determined photometrically after 5-6 days at 620 nm
smiles,measurement,setting,value
"O=C(Nc1ccccc1F)c1ccc(-c2noc(C(F)(F)F)n2)cc1 [Flufenoxadiazam, flufenoxadiazam]",Observed Activity (%),[1]; 0.08 ppm,20%
same,Observed Activity (%),[1]; 0.246 ppm,20%
same,Observed Activity (%),[1]; 0.74 ppm,20%
same,Observed Activity (%),[1]; 2.22 ppm,20%
"O=C(NC1CCC1c1ccc(Cl)cc1Cl)c1cccnc1C(F)(F)F (stereo in doubt) [Cyclobutrifluram, cyclobutrifluram]",Observed Activity (%),Botrytis cinerea; 0.066 ppm,20%
same,Observed Activity (%),Botrytis cinerea; 0.074 ppm,20%
same,Observed Activity (%),Botrytis cinerea; 0.2 ppm,50%
same,Observed Activity (%),Botrytis cinerea; 0.22 ppm,50%
same,Observed Activity (%),Botrytis cinerea; 0.66 ppm,70%
same,Observed Activity (%),Sclerotinia sclerotiorum; 0.074 ppm,20%
same,Observed Activity (%),Alternaria solani; 0.0008 ppm,0%
same,Observed Activity (%),Alternaria solani; 0.00246 ppm,20%
same,Observed Activity (%),Alternaria solani; 0.0074 ppm,50%
same,Observed Activity (%),Alternaria solani; 0.022 ppm,70%
"CCS(=O)(=O)c1cc(C(F)(F)F)ccc1C(=O)N(C(C)=O)c1ccc(OC(F)(F)F)cc1C(=O)OC [Compound A-1.1, Methyl 2-[acetyl-[2-ethylsulfonyl-4-(trifluoromethyl)benzoyl]amino]-5-(trifluoromethoxy)benzoate]",inhibition at 1 ppm,"Botrytis cinerea; Botrytis cinerea, 1 ppm, read-out: Observed Activity (%)",50%
same,inhibition at 2 ppm,"Botrytis cinerea; Botrytis cinerea, 2 ppm, read-out: Observed Activity (%)",50%
same,inhibition at 10 ppm,"Botrytis cinerea; Botrytis cinerea, 10 ppm, read-out: Observed Activity (%)",50%
same,inhibition at 20 ppm,"Botrytis cinerea; Botrytis cinerea, 20 ppm, read-out: Observed Activity (%)",50%
same,inhibition at 1 ppm,"[1]; Colletotrichum, 1 ppm, read-out: Observed Activity (%)",0%
same,inhibition at 2 ppm,"[1]; Colletotrichum, 2 ppm, read-out: Observed Activity (%)",0%
same,inhibition at 10 ppm,"[1]; Colletotrichum, 10 ppm, read-out: Observed Activity (%)",70%
same,inhibition at 20 ppm,"[1]; Colletotrichum, 20 ppm, read-out: Observed Activity (%)",70%
same,inhibition at 10 ppm,"[2]; Mycosphaerella arachidis, 10 ppm, read-out: Observed Activity (%)",0%
same,inhibition at 20 ppm,"[2]; Mycosphaerella arachidis, 20 ppm, read-out: Observed Activity (%)",0%
same,inhibition at 10 ppm,"Sclerotinia sclerotiorum; Sclerotinia sclerotiorum, 10 ppm, read-out: Observed Activity (%)",0%
same,inhibition at 20 ppm,"Sclerotinia sclerotiorum; Sclerotinia sclerotiorum, 20 ppm, read-out: Observed Activity (%)",0%
same,inhibition at 1 ppm,"Alternaria solani; Alternaria solani, 1 ppm, read-out: Observed Activity (%)",50%
same,inhibition at 2 ppm,"Alternaria solani; Alternaria solani, 2 ppm, read-out: Observed Activity (%)",50%
"CON(C(=O)c1cn(C)nc1C(F)F)C(C)Cc1c(Cl)cc(Cl)cc1Cl (stereo not drawn) [Pydiflumetofen, pydiflumetofen]",Observed Activity (%),Botrytis cinerea; 0.0008 ppm,0%
same,Observed Activity (%),Botrytis cinerea; 0.00246 ppm,20%
same,Observed Activity (%),Botrytis cinerea; 0.0074 ppm,50%
same,Observed Activity (%),Botrytis cinerea; 0.022 ppm,70%
same,Observed Activity (%),Alternaria solani; 0.0008 ppm,0%
same,Observed Activity (%),Alternaria solani; 0.00246 ppm,50%
same,Observed Activity (%),Alternaria solani; 0.0074 ppm,70%
"N#Cc1ccc(Oc2ccc(C(F)(F)C(O)(Cn3[nH]cnc3=S)c3ccc(F)cc3F)nc2)cc1 (stereo not drawn) [Fluoxytioconazole, fluoxytioconazole]",Observed Activity (%),Botrytis cinerea; 0.22 ppm,0%
same,Observed Activity (%),Botrytis cinerea; 0.66 ppm,0%
same,Observed Activity (%),Botrytis cinerea; 2 ppm,0%
same,Observed Activity (%),Botrytis cinerea; 6 ppm,20%
"CCC(=O)Oc1c(OC)ccnc1C(=O)N[C@@H](C)C(=O)O[C@@H](C)[C@@H](C)c1ccccc1C [Metarylpicoxamid, metarylpicoxamid]",Observed Activity (%),Botrytis cinerea; 0.0246 ppm,0%
same,Observed Activity (%),Botrytis cinerea; 0.074 ppm,20%
same,Observed Activity (%),Botrytis cinerea; 0.22 ppm,50%
same,Observed Activity (%),Botrytis cinerea; 0.66 ppm,70%
same,Observed Activity (%),[1]; 2 ppm,70%
same,Observed Activity (%),[2]; 0.0246 ppm,20%
same,Observed Activity (%),Alternaria solani; 0.22 ppm,20%
same,Observed Activity (%),Alternaria solani; 0.66 ppm,50%
same,Observed Activity (%),Alternaria solani; 2 ppm,50%
